Laboratory results as given in US10881599B2, “Whitening composition including novel kaempferol-based compound derived from post-fermented tea” (AMOREPACIFIC CORPORATION, priority 2017, dated 2021).
Blank lines part the entries; values can stand above or below the compound they belong to.

How the values were obtained:
mushroom tyrosinase = experiment: Tyrosinase activity-inhibitory effect; format: biochemical; details: L-tyrosine, 20 minutes at 37° C., absorbance at 490 nm
Experimental: The tyrosinase activity-inhibitory effect of new material 33 was evaluated. Specifically, tyrosinase and tyrosine derived from mushrooms were obtained from Sigma Chemical. […] Tyrosinase activity was assessed by measuring the absorbance at 490 nm using a microplate reader (Bio-Rad 3550, Richmond, Calif., U.S.A.) after an enzyme reaction for 20 minutes at 37° C.

Mel-Ab cell line = experiment: Melanin production-inhibitory effect (Dooley's method); format: cell-based, C57BL/6; details: Mel-Ab cells, melanin after 5 days, absorbance at 400 nm
skin = experiment: Human repeated insult patch test (HRIPT), skin accumulation stimulation; format: in vivo; parameters: key to Skin reactivity (ICDRG criteria): −: negative (no response); ±: doubtful or slight erythema, etc.; +: weak reaction (which is accompanied with no phlyctenule), erythema, papule; ++: severe reaction (which is accompanied with phlyctenule), erythema, papule, phlyctenule; +++: strong reaction, bullae reaction; details: for Number of subjects with ±, +, or ++ reactivity, 1st: 1st patch; for Number of subjects with ±, +, or ++ reactivity, 2nd: 2nd patch; for Number of subjects with ±, +, or ++ reactivity, 3rd: 3rd patch; for Number of subjects with ±, +, or ++ reactivity, 4th: 4th patch; for Number of subjects with ±, +, or ++ reactivity, 5th: 5th patch; for Number of subjects with ±, +, or ++ reactivity, 6th: 6th patch; for Number of subjects with ±, +, or ++ reactivity, 7th: 7th patch; for Number of subjects with ±, +, or ++ reactivity, 8th: 8th patch; for Average reactivity: 9 patches, 15 subjects, less than 3 is considered stable; for Number of subjects with ±, +, or ++ reactivity, 9th: 9th patch
Experimental: Human repeated insult patch tests (HRIPT) were performed to confirm the skin accumulation stimulation of the kaempferol3-O-[2-O″-(E)-p-coumaroyl][beta-D-glucopyranosyl-(1→3)-O-alpha-L-rhamnopyranosyl-(1→6)-O-beta-D-glucopyranoside] and to calculate the concentration range available for the skin.
Specifically, 15 healthy adult subjects were randomly selected, and the test composition (the skin composition including an emulsifier, a stabilizer, purified water, etc. in addition to the compound) containing 0.5 wt %, 1 wt %, and 3 wt % of the compound was added dropwise by 20 μl per chamber (IQ chamber, Epitest Ltd, Finland). After 24 hours from patching the upper right part of the back of a subject, it was replaced with the new patch. A total of 9 patches were conducted, three times a week for total 3 weeks, in such manner, the skin reactions before and after patch were examined every time, and the skin reactions until 48 hours after removing the final patch were observed, and the average reactivity was observed.
The skin response was determined according to the criteria of the International Contact Dermatitis Research Group (ICDRG). ‘New material 33’ in the table above is kaempferol3-O-[2-O″-(E)-p-coumaroyl][beta-D-glucopyranosyl-(1→3)-O-alpha-L-rhamnopyranosyl-(1→6)-O-beta-D-glucopyranoside].

Tyrosinase activity-inhibitory effect IC50 (mushroom tyrosinase): 149 ppm
SMILES: OC[C@H]1O[C@@H](Oc2ccc(O)cc2)[C@H](O)[C@@H](O)[C@@H]1O [Arbutin, reference compound]

Melanin production-inhibitory effect IC50 (Mel-Ab cell line): 39.36 ppm
SMILES: O=c1cc(CO)occ1O [Kojic acid, reference compound]

Tyrosinase activity-inhibitory effect IC50 (mushroom tyrosinase): 11 ppm
Skin reactivity (ICDRG criteria) (skin; 0.5 wt %, 1 wt % and 3 wt %, all subjects, all patches): −
Number of subjects with ±, +, or ++ reactivity, 1st (skin; 0.5 wt %, line 1 of 3 (±)): 0 person
Number of subjects with ±, +, or ++ reactivity, 1st (skin; 0.5 wt %, line 2 of 3 (+)): 0 person
Number of subjects with ±, +, or ++ reactivity, 1st (skin; 0.5 wt %, line 3 of 3 (++)): 0 person
Number of subjects with ±, +, or ++ reactivity, 2nd (skin; 0.5 wt %, line 1 of 3 (±)): 0 person
Number of subjects with ±, +, or ++ reactivity, 2nd (skin; 0.5 wt %, line 2 of 3 (+)): 0 person
Number of subjects with ±, +, or ++ reactivity, 2nd (skin; 0.5 wt %, line 3 of 3 (++)): 0 person
Number of subjects with ±, +, or ++ reactivity, 3rd (skin; 0.5 wt %, line 1 of 3 (±)): 0 person
Number of subjects with ±, +, or ++ reactivity, 3rd (skin; 0.5 wt %, line 2 of 3 (+)): 0 person
Number of subjects with ±, +, or ++ reactivity, 3rd (skin; 0.5 wt %, line 3 of 3 (++)): 0 person
Number of subjects with ±, +, or ++ reactivity, 4th (skin; 0.5 wt %, line 1 of 3 (±)): 0 person
Number of subjects with ±, +, or ++ reactivity, 4th (skin; 0.5 wt %, line 2 of 3 (+)): 0 person
Number of subjects with ±, +, or ++ reactivity, 4th (skin; 0.5 wt %, line 3 of 3 (++)): 0 person
Number of subjects with ±, +, or ++ reactivity, 5th (skin; 0.5 wt %, line 1 of 3 (±)): 0 person
Number of subjects with ±, +, or ++ reactivity, 5th (skin; 0.5 wt %, line 2 of 3 (+)): 0 person
Number of subjects with ±, +, or ++ reactivity, 5th (skin; 0.5 wt %, line 3 of 3 (++)): 0 person
Number of subjects with ±, +, or ++ reactivity, 6th (skin; 0.5 wt %, line 1 of 3 (±)): 0 person
Number of subjects with ±, +, or ++ reactivity, 6th (skin; 0.5 wt %, line 2 of 3 (+)): 0 person
Number of subjects with ±, +, or ++ reactivity, 6th (skin; 0.5 wt %, line 3 of 3 (++)): 0 person
Number of subjects with ±, +, or ++ reactivity, 7th (skin; 0.5 wt %, line 1 of 3 (±)): 0 person
Number of subjects with ±, +, or ++ reactivity, 7th (skin; 0.5 wt %, line 2 of 3 (+)): 0 person
Number of subjects with ±, +, or ++ reactivity, 7th (skin; 0.5 wt %, line 3 of 3 (++)): 0 person
Number of subjects with ±, +, or ++ reactivity, 8th (skin; 0.5 wt %, line 1 of 3 (±)): 0 person
Number of subjects with ±, +, or ++ reactivity, 8th (skin; 0.5 wt %, line 2 of 3 (+)): 0 person
Number of subjects with ±, +, or ++ reactivity, 8th (skin; 0.5 wt %, line 3 of 3 (++)): 0 person
Average reactivity (skin; 0.5 wt %): 0
Number of subjects with ±, +, or ++ reactivity, 9th (skin; 0.5 wt %, line 1 of 3 (±)): 0 person
Number of subjects with ±, +, or ++ reactivity, 9th (skin; 0.5 wt %, line 2 of 3 (+)): 0 person
Number of subjects with ±, +, or ++ reactivity, 9th (skin; 0.5 wt %, line 3 of 3 (++)): 0 person
Number of subjects with ±, +, or ++ reactivity, 1st (skin; 1 wt %, line 1 of 3 (±)): 0 person
Number of subjects with ±, +, or ++ reactivity, 1st (skin; 1 wt %, line 2 of 3 (+)): 0 person
Number of subjects with ±, +, or ++ reactivity, 1st (skin; 1 wt %, line 3 of 3 (++)): 0 person
Number of subjects with ±, +, or ++ reactivity, 2nd (skin; 1 wt %, line 1 of 3 (±)): 0 person
Number of subjects with ±, +, or ++ reactivity, 2nd (skin; 1 wt %, line 2 of 3 (+)): 0 person
Number of subjects with ±, +, or ++ reactivity, 2nd (skin; 1 wt %, line 3 of 3 (++)): 0 person
Number of subjects with ±, +, or ++ reactivity, 3rd (skin; 1 wt %, line 1 of 3 (±)): 0 person
Number of subjects with ±, +, or ++ reactivity, 3rd (skin; 1 wt %, line 2 of 3 (+)): 0 person
Number of subjects with ±, +, or ++ reactivity, 3rd (skin; 1 wt %, line 3 of 3 (++)): 0 person
Number of subjects with ±, +, or ++ reactivity, 4th (skin; 1 wt %, line 1 of 3 (±)): 0 person
Number of subjects with ±, +, or ++ reactivity, 4th (skin; 1 wt %, line 2 of 3 (+)): 0 person
Number of subjects with ±, +, or ++ reactivity, 4th (skin; 1 wt %, line 3 of 3 (++)): 0 person
Number of subjects with ±, +, or ++ reactivity, 5th (skin; 1 wt %, line 1 of 3 (±)): 0 person
Number of subjects with ±, +, or ++ reactivity, 5th (skin; 1 wt %, line 2 of 3 (+)): 0 person
Number of subjects with ±, +, or ++ reactivity, 5th (skin; 1 wt %, line 3 of 3 (++)): 0 person
Number of subjects with ±, +, or ++ reactivity, 6th (skin; 1 wt %, line 1 of 3 (±)): 0 person
Number of subjects with ±, +, or ++ reactivity, 6th (skin; 1 wt %, line 2 of 3 (+)): 0 person
Number of subjects with ±, +, or ++ reactivity, 6th (skin; 1 wt %, line 3 of 3 (++)): 0 person
Number of subjects with ±, +, or ++ reactivity, 7th (skin; 1 wt %, line 1 of 3 (±)): 0 person
Number of subjects with ±, +, or ++ reactivity, 7th (skin; 1 wt %, line 2 of 3 (+)): 0 person
Number of subjects with ±, +, or ++ reactivity, 7th (skin; 1 wt %, line 3 of 3 (++)): 0 person
Number of subjects with ±, +, or ++ reactivity, 8th (skin; 1 wt %, line 1 of 3 (±)): 0 person
Number of subjects with ±, +, or ++ reactivity, 8th (skin; 1 wt %, line 2 of 3 (+)): 0 person
Number of subjects with ±, +, or ++ reactivity, 8th (skin; 1 wt %, line 3 of 3 (++)): 0 person
Average reactivity (skin; 1 wt %): 0
Number of subjects with ±, +, or ++ reactivity, 9th (skin; 1 wt %, line 1 of 3 (±)): 0 person
Number of subjects with ±, +, or ++ reactivity, 9th (skin; 1 wt %, line 2 of 3 (+)): 0 person
Number of subjects with ±, +, or ++ reactivity, 9th (skin; 1 wt %, line 3 of 3 (++)): 0 person
Number of subjects with ±, +, or ++ reactivity, 1st (skin; 3 wt %, line 1 of 3 (±)): 0 person
Number of subjects with ±, +, or ++ reactivity, 1st (skin; 3 wt %, line 2 of 3 (+)): 0 person
Number of subjects with ±, +, or ++ reactivity, 1st (skin; 3 wt %, line 3 of 3 (++)): 0 person
Number of subjects with ±, +, or ++ reactivity, 2nd (skin; 3 wt %, line 1 of 3 (±)): 0 person
Number of subjects with ±, +, or ++ reactivity, 2nd (skin; 3 wt %, line 2 of 3 (+)): 0 person
Number of subjects with ±, +, or ++ reactivity, 2nd (skin; 3 wt %, line 3 of 3 (++)): 0 person
Number of subjects with ±, +, or ++ reactivity, 3rd (skin; 3 wt %, line 1 of 3 (±)): 0 person
Number of subjects with ±, +, or ++ reactivity, 3rd (skin; 3 wt %, line 2 of 3 (+)): 0 person
Number of subjects with ±, +, or ++ reactivity, 3rd (skin; 3 wt %, line 3 of 3 (++)): 0 person
Number of subjects with ±, +, or ++ reactivity, 4th (skin; 3 wt %, line 1 of 3 (±)): 0 person
Number of subjects with ±, +, or ++ reactivity, 4th (skin; 3 wt %, line 2 of 3 (+)): 0 person
Number of subjects with ±, +, or ++ reactivity, 4th (skin; 3 wt %, line 3 of 3 (++)): 0 person
Number of subjects with ±, +, or ++ reactivity, 5th (skin; 3 wt %, line 1 of 3 (±)): 0 person
Number of subjects with ±, +, or ++ reactivity, 5th (skin; 3 wt %, line 2 of 3 (+)): 0 person
Number of subjects with ±, +, or ++ reactivity, 5th (skin; 3 wt %, line 3 of 3 (++)): 0 person
Number of subjects with ±, +, or ++ reactivity, 6th (skin; 3 wt %, line 1 of 3 (±)): 0 person
Number of subjects with ±, +, or ++ reactivity, 6th (skin; 3 wt %, line 2 of 3 (+)): 0 person
Number of subjects with ±, +, or ++ reactivity, 6th (skin; 3 wt %, line 3 of 3 (++)): 0 person
Number of subjects with ±, +, or ++ reactivity, 7th (skin; 3 wt %, line 1 of 3 (±)): 0 person
Number of subjects with ±, +, or ++ reactivity, 7th (skin; 3 wt %, line 2 of 3 (+)): 0 person
Number of subjects with ±, +, or ++ reactivity, 7th (skin; 3 wt %, line 3 of 3 (++)): 0 person
Number of subjects with ±, +, or ++ reactivity, 8th (skin; 3 wt %, line 1 of 3 (±)): 0 person
Number of subjects with ±, +, or ++ reactivity, 8th (skin; 3 wt %, line 2 of 3 (+)): 0 person
Number of subjects with ±, +, or ++ reactivity, 8th (skin; 3 wt %, line 3 of 3 (++)): 0 person
Average reactivity (skin; 3 wt %): 0
Number of subjects with ±, +, or ++ reactivity, 9th (skin; 3 wt %, line 1 of 3 (±)): 0 person
Number of subjects with ±, +, or ++ reactivity, 9th (skin; 3 wt %, line 2 of 3 (+)): 0 person
Number of subjects with ±, +, or ++ reactivity, 9th (skin; 3 wt %, line 3 of 3 (++)): 0 person
Melanin production-inhibitory effect IC50 (Mel-Ab cell line): 15.7 ppm
SMILES: C[C@@H]1O[C@@H](OC[C@H]2O[C@@H](Oc3c(-c4ccc(O)cc4)oc4cc(O)cc(O)c4c3=O)[C@H](OC(=O)/C=C/c3ccc(O)cc3)[C@@H](O)[C@@H]2O)[C@H](O)[C@H](O[C@@H]2O[C@H](CO)[C@@H](O)[C@H](O)[C@H]2O)[C@H]1O [new material 33, kaempferol3-O-[2-O″-(E)-p-coumaroyl][beta-D-glucopyranosyl-(1→3)-O-alpha-L-rhamnopyranosyl-(1→6)-O-beta-D-glucopyranoside]]
